# Experimental data reported in patent US20220323596A1, “ANTIBODY CONJUGATES OF TOLL-LIKE RECEPTOR AGONISTS” (SILVERBACK THERAPEUTICS, INC., priority 2018, published 2022).
# System: BMDM with SK-BR-3 (HER2pos)
# Assay: mTNFα from mouse bone marrow derived macrophages co-cultured with SK-BR-3 (HER2pos) cells
# Type: cell-based
# Details: 24 hours co-culture with HER2pos SK-BR-3
# Method: (§1) The ability of an anti-HER2-TLR7 conjugate to specifically activate mouse macrophages when bound to tumor cells by HER2 was assessed in vitro as follows. Bone marrow cells were harvested from BALB/cJ mouse femurs and tibias using a 27-gauge needle attached to a 3 mL syringe filled with growth media (DMEM supplemented with 10% Fetal Bovine Serum, 1 mM Sodium Pyruvate, 1× GlutaMAX-1, 1× Non-Essential Amino Acids, 10 mM HEPES and 0.5% Penicillin/Streptomycin). Bone marrow cells were centrifuged, and RBC lysed before being counted and resuspended at a concentration 5×10^5/mL in growth media. Ten mL of cell suspension was placed in 10 cm dishes and 20 ng/mL murine macrophage-colony-stimulating factor (mM-CSF) was added. Cells were incubated for two days, media replaced with fresh growth media containing 20 ng/mL mM-CSF, and then cultured for a further four days. BMDM and tumor cell lines SK-BR-3 (HER2pos) or MDA-MB-468 (HER2neg) were removed from plates with Accutase cell detachment solution and counted. […] Murine TNFα (mTNFα) levels in the supernatant were determined by mTNFα ELISA Kit (BioLegend) and read on an Envision Plate Reader (Perkin Elmer, Waltham, Mass.) according to manufactures instructions. mTNFα levels were then graphed using GraphPad Prism 7.01 software (GraphPad Software, San Diego, Calif.) and EC50 values generated using non-linear regression curve fit.
row,SMILES,activation of mouse bone marrow cells (mTNFα)
1,"CCOCc1nc2c(N)nc3ccccc3c2n1CC(C)(C)OCCNC(=O)C(C)(C)N [Compound 1.2, 2-amino-N-(2-((1-(4-amino-2-(ethoxymethyl)-1H-imidazo[4,5-c]quinolin-1-yl)-2-methylpropan-2-yl)oxy)ethyl)-2-methylpropanamide]",potently activating

# Target: T1, TLR7 (Mus musculus, UniProt P58681)
# T1 construct: endogenous in cells; host or cells: Balb/c mouse bone marrow-derived macrophages, differentiated with M-CSF
# T1 sequence (P58681 27-1050): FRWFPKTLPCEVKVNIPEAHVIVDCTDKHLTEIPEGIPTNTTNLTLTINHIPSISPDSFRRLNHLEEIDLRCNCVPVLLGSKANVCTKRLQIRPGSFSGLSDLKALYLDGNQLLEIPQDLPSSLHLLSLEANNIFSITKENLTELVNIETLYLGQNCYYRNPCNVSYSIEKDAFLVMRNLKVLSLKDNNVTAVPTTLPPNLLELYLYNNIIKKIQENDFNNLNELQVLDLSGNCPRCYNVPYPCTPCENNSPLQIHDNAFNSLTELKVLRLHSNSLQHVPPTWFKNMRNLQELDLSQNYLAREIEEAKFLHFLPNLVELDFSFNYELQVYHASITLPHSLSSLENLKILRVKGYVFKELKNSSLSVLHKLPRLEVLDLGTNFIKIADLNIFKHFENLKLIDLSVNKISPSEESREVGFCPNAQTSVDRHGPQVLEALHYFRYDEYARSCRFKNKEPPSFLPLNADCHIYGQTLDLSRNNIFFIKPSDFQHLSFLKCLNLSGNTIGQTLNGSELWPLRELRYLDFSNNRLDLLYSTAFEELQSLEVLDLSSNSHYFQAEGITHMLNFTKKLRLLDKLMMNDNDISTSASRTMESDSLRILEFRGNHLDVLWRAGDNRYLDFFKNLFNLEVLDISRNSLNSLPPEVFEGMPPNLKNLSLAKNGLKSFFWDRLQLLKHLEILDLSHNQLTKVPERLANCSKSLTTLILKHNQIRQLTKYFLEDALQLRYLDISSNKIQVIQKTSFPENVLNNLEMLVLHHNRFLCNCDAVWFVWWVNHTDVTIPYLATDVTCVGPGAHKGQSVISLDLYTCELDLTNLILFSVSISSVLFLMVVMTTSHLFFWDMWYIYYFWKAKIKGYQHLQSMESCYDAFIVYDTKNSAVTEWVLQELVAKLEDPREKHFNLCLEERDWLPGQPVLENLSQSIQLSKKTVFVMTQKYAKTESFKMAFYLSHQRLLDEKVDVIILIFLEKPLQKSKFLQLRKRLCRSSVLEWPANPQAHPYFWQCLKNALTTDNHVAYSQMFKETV
# Assay: In vitro TLR7 small molecule screening: murine TNFα production by bone marrow-derived murine macrophages
# Type: cell-based
# Details: murine TNFα by ELISA after overnight culture; 1000 to 0.06 nM; non-linear regression
# Method: Murine macrophages were derived from bone marrow cells from a Balb/c mouse. Briefly, murine bone marrow cells were isolated and resuspended in cDMEM media (high glucose DMEM (HyClone) supplemented with 10% fetal bovine serum (HyClone), 1 mM Sodium Pyruvate (HyClone), 2 mM L-glutamine (Gibco), 10 mM HEPES (HyClone), 1×NEAA (Gibco), 50 U/mL penicillin, 50 U/mL streptomycin (HyClone)) and seeded at 5e5 cells/mL in the presence of 20 ng/mL murine M-CSF (Peprotech) and incubated at 37° C., 5% CO2 for 7 days to differentiate into murine macrophages.
# After differentiation, bone marrow-derived murine macrophages were plated in 96-well flat bottom microtiter plates (80,000/well) along with titrating concentrations of TLR7 small molecules ranging from 1000 to 0.06 nM in cRPMI media (RPMI-1640 (HyClone) supplemented with 10% fetal bovine serum (HyClone), 1 mM Sodium Pyruvate (HyClone), 2 mM L-glutamine (Gibco), 10 mM HEPES (HyClone), 1×NEAA (Gibco), 50 U/mL penicillin, 50 U/mL streptomycin (HyClone)). After overnight culture, supernatants were harvested and murine TNFα levels were determined by ELISA (BioLegend). Table 4. […] Data was analyzed using GraphPad Prism 7.01 software (GraphPad Software) and EC50 values calculated using non-linear regression. The TLR7 small molecules were active, stimulating production of murine TNFα in a dose-dependent manner from the murine macrophages. Compound A is represented by the formula: […]
row,EC50,SMILES
1,0.02 µM,"CCOCc1nc2c(N)nc3ccccc3c2n1CC(C)(C)OCCNC(=O)C(C)(C)NC(=O)OCc1ccccc1 [Compound 1.1, benzyl (1-((2-((1-(4-amino-2-(ethoxymethyl)-1H-imidazo[4,5-c]quinolin-1-yl)-2-methylpropan-2-yl)oxy)ethyl)amino)-2-methyl-1-oxopropan-2-yl)carbamate]"
2,0.0012 µM,"CCOCc1nc2c(N)nc3ccccc3c2n1CC(C)(C)OCCNC(=O)OC(C)(C)C [Compound 1.4, tert-butyl (2-((1-(4-amino-2-(ethoxymethyl)-1H-imidazo[4,5-c]quinolin-1-yl)-2-methylpropan-2-yl)oxy)ethyl)carbamate]"
3,0.004 µM,"CCOCc1nc2c(NC(=O)[C@H](CCCNC(N)=O)NC(=O)[C@@H](N)C(C)C)nc3ccccc3c2n1CC(C)(C)OCCNC(=O)OC(C)(C)C [Compound 1.5, tert-butyl (2-((1-(4-((S)-2-((S)-2-amino-3-methylbutanamido)-5-ureidopentanamido)-2-(ethoxymethyl)-1H-imidazo[4,5-c]quinolin-1-yl)-2-methylpropan-2-yl)oxy)ethyl)carbamate]"
4,0.657 µM,"CCOCc1nc2c(NC(=O)[C@H](C)N)nc3ccccc3c2n1CC(C)(C)OCCNC(=O)C(C)(C)NC(=O)OCc1ccccc1 [Compound 1.6, benzyl (S)-(1-((2-((1-(4-(2-aminopropanamido)-2-(ethoxymethyl)-1H-imidazo[4,5-c]quinolin-1-yl)-2-methylpropan-2-yl)oxy)ethyl)amino)-2-methyl-1-oxopropan-2-yl)carbamate]"
5,0.503 µM,"CCOCc1nc2c(NC(=O)[C@H](C)NC(=O)C3CCCN3C(=O)OC(C)(C)C)nc3ccccc3c2n1CC(C)(C)OCCNC(=O)C(C)(C)NC(=O)OCc1ccccc1 (stereo partly drawn) [Compound 1.7, tert-butyl 2-(((S)-1-((2-(ethoxymethyl)-1-(5,5,11,11-tetramethyl-3,6-dioxo-1-phenyl-2,10-dioxa-4,7-diazadodecan-12-yl)-1H-imidazo[4,5-c]quinolin-4-yl)amino)-1-oxopropan-2-yl)carbamoyl)pyrrolidine-1-carboxylate]"
6,0.073 µM,"CCOCc1nc2c(N)nc3ccccc3c2n1CC(C)(C)OCCN [Compound A, reference compound]"

row,SMILES,EC50
1,"CCOCc1nc2c(NC(=O)[C@H](C)NC(=O)OC(C)(C)C)nc3ccccc3c2n1CC(C)(C)OCCNC(=O)C(C)(C)NC(=O)OCc1ccccc1 [Compound 1.3, benzyl (S)-(1-((2-((1-(4-(2-((tert-butoxycarbonyl)amino)propanamido)-2-(ethoxymethyl)-1H-imidazo[4,5-c]quinolin-1-yl)-2-methylpropan-2-yl)oxy)ethyl)amino)-2-methyl-1-oxopropan-2-yl)carbamate]",1.68 µM
2,"CCOCc1nc2c(NC(=O)[C@H](CCCNC(N)=O)NC(=O)[C@@H](NC(=O)OCC3c4ccccc4-c4ccccc43)C(C)C)nc3ccccc3c2n1CC(C)(C)OCCNC(=O)OC(C)(C)C [Compound 1.8, (9H-fluoren-9-yl)methyl ((S)-1-(((S)-1-((1-(2-(2-((tert-butoxycarbonyl)amino)ethoxy)-2-methylpropyl)-2-(ethoxymethyl)-1H-imidazo[4,5-c]quinolin-4-yl)amino)-1-oxo-5-ureidopentan-2-yl)amino)-3-methyl-1-oxobutan-2-yl)carbamate]",0.059 µM

# System: BMDM with MDA-MB-468 (HER2neg)
# Assay: mTNFα from mouse bone marrow derived macrophages co-cultured with MDA-MB-468 (HER2neg) cells
# Type: cell-based
# Details: 24 hours co-culture with HER2neg MDA-MB-468
# Method: as §1
row,SMILES,activation of mouse bone marrow cells (mTNFα)
1,"CCOCc1nc2c(N)nc3ccccc3c2n1CC(C)(C)OCCNC(=O)C(C)(C)N [Compound 1.2, 2-amino-N-(2-((1-(4-amino-2-(ethoxymethyl)-1H-imidazo[4,5-c]quinolin-1-yl)-2-methylpropan-2-yl)oxy)ethyl)-2-methylpropanamide]",potently activating
